For 15 compounds, Activity and mortality results are on record in patent US5449667A, “Amidothiophosphate derivative and insecticide, nematocide and acaricide containing the same as active ingredient” (priority 1993, dated 1995).

Type in all cases: in vivo
Test [1] deals with Tetranychus cinnabarinus. Kind of test: Activity against Tetranychus cinnabarinus. The arrangement: key: -: substantially no damage; +: little damage; ++: heavy damage. Conditions: 500 ppm, 15 ml spray plus 2 ml soil injection, kidney bean, after eight days. As to the method:
Biological Test 8 Activity Against Tetranychus cinnabarinus
Ten male mites (Tetranychus cinnabarinus) per leaf were placed on a pot-planted kidney bean (Phasseolus vulgaris: seven days after sowing) and kept in a thermostatic chamber. After six days, 15 ml of a 500 ppm aqueous solution obtained by diluting each emulsifiable concentrate of each of the present compounds according to the formulation example 1 was sprayed in a pot simultaneously with injection of 2 ml of the solution into soil. After eight days, damage to the plant by Tetranychus cinnabarinus was evaluated according to the following criteria:
-: substantially no damage

The test system of test [2] is Musca domestica. Kind of test: Insecticidal activity against Musca domestica. Conditions: 24 h, 0.7 ml of 500 ppm on filter paper, ten female house flies, after one day. As to the method:
Biological Test 4 Insecticidal Activity Against Musca domestica
Filter paper of 5.5 cm in diameter was laid in the bottom of a polyethylene cup (diameter: 5.5 cm). After 0.7 ml of a 500 ppm aqueous solution obtained by diluting each emulsifiable concentrate prepared from each of the present compounds according to the formulation example 1 was dropped on the filter paper and approximately 30 mg of sucrose was uniformly scattered, and put on the filter paper as bait, ten female house flies (Musca domestica) were left in the cup with a cover. After one day, the mortality was examined for the flies.

In test [3] the test system is larvae of Diabrotica undecimpunctata. As to the kind of experiment: Insecticidal activity against larvae of Diabrotica undecimpunctata. Conditions: 1 ml of 50 ppm on filter paper, approximately thirty eggs, after eight days. As to the method: Biological Text 5 Insecticidal Activity Against Larvae of Diabrotica undecimpunctata
Filter paper of 5.5 cm in diameter was laid in the bottom of a polyethylene cup (diameter: 5.5 cm). After 1 ml of a 50 ppm aqueous solution obtained by diluting each of the emulsifiable concentrate prepared from each of the present compounds according to the formulation example 1 was dropped on the filter paper and one sprouting corn crop was placed as bait on the paper, approximately thirty eggs of Diabrotica undecimpunctata were left on the filter paper. After eight days, the rate of hatched larvae was examined. The activity were evaluated according to the following criteria:
B: Mortality not less than 90% but less than 100%
C: Mortality less than 90%

In test [4] the test system is larvae of Culex pipiens pallens. Kind of test: Insecticidal activity against larvae of Culex pipiens pallens. Conditions: 3.5 ppm active ingredient in water, twenty last-instar larvae, after one day. As to the method: Biological Test 7 Insecticidal Activity Against Larvae of Culex pipiens pallens
Each of emulsifiable concentrates prepared from each of the present compounds according to the formulation example 1 was diluted with water, and 0.7 ml of the diluted solution was added to 100 ml of ion-exchanged water (concentration of active ingredient: 3.5 ppm). Twenty last-instar larvae of Culex pipiens pallens were left in the water. After one day, the activity was evaluated according to the following criteria:
A: Mortality not less than 90%
B: Mortality not less than 10% but less than 90%
C: Mortality less than 10%

The test system of test [5] is Blattella germanica. As to the kind of experiment: Insecticidal activity against Blattella germanica. Conditions: 24 h, 0.7 ml of 500 ppm on filter paper, ten male cockroaches, after one day. As to the method:
Biological Test 3 Insecticidal Avtivity Against Blattella germanica
Filter paper of 5.5 cm in diameter was laid in the bottom of a polyethylene cup (diameter: 5.5 cm). After 0.7 ml of a 500 ppm aqueous solution obtained by diluting each emulsifiable concentrate prepared from each of the present compounds according to the formulation example 1 was dropped on the filter paper and approximately 30 mg of sucrose was uniformly scattered and put on the filter paper as bait, ten male cockroaches (Blattella germanica) were left in the cup with a cover. After one day, the mortality was examined for the cockroaches.

In test [6] the test system is root-knot nematodes. Kind of test: Activity against root-knot nematodes. The arrangement: key: -: substantially no root knots; +: several to ten odds root knots; ++: larger number of root knots (heavier damage than +). Conditions: 25 ppm active ingredient in soil, tomato root, after four weeks. As to the method:
Biological Test 6 Activity Against Root-knot Nematodes
One ml of a 500 ppm aqueous solution of each of the present compounds obtained by diluting each emulsifiable concentrate prepared from each of the present compounds according to the formulation example 1 was mixed with 19 g of soil contaminated with root-knot nematodes (concentration of active ingredient in soil: 25 ppm). After the soil was kept at 27° C. for 24 hours, the root of a tomato plant (approximately two weeks after sprouting) in a cup was covered with the soil and some water was given to the plant. After four weeks, damage to the root of the tomato plant was evaluated according to the following criteria:
-: substantially no root knots
+: several to ten odds root knots
++: larger number of root knots (heavier damage than +)

Test [7] has as its system larvae of Nilaparvata lugens. Kind of test: Insecticidal activity against larvae of Nilaparvata lugens. Conditions: 500 ppm aqueous solution, rice stalk dip, approximately 30 larvae, after six days. As to the method:
Biological Test 2 Insecticidal Activity Against Larvae of Nilaparvata lugens
A stalk of a rice plant was dipped for one minute in a 500 ppm aqueous solution obtained by diluting each emulsifiable concentrate prepared from each of the present compounds according to the formulation example 1 and then air-dried. The rice plant stalk was placed in a polyethylene cup (diameter: 5.5 cm) where filter paper (diameter: 5.5 cm) impregnated with 1 ml of water was put. Approximately 30 larvae of Nilaparvata lugens were put in the polyethylene cup. After six days, the activity was evaluated according to the following criteria:
B: the number of the living larvae is not greater than 5
C: the number of the living larvae is 6 or more

For test [8], the system named is larvae of Spodoptera litura. Kind of test: Insecticidal activity against larvae of Spodoptera litura. Conditions: 144 h, 4-instar larvae, artificial bait, after six days. As to the method:
Biological Test 1 Insecticidal Activity Against Larvae of Spodoptera litura
Emulsifiable concentrates were prepared for each of the present compounds according to the formulation example 1. Thirteen grams of artificial bait for Spodoptera litura were placed in a polyethylene cup (diameter: 11 cm) and impregnated with 2 ml of the emulsifiable concentrate diluted with water (500 ppm). Ten 4-instar larvae of Spodoptera litura were put in the polyethylene cup. After six days, the mortality of the larvae was examined.

Each structure is given as a SMILES string.

Regarding `CCOP(=O)(SC(C)CC)N(CC#N)C(=O)Oc1ccccc1` (centres unmarked) [Compound 14, O-ethyl S-sec-butyl N-cyanomethyl N-phenoxycarbonyl phosphoroamidothiolate], the Activity entry in test [1] is recorded as “-”; in test [3], “A (Mortality 100%)”; in test [4], “A (Mortality not less than 90%)”; in test [6], “-”; in test [7], “A (no living larvae)”. Moreover, the mortality at 500 ppm in test [2], in test [5] and in test [8] was 100% throughout.
Take `CCOP(=O)(SC(C)CC)N(CC#N)C(=O)OCC(C)C` (centres unmarked) [Compound 18]: the Activity result is “-” in test [1]; “A (Mortality 100%)” in test [3]; “A (Mortality not less than 90%)” in test [4]; “-” in test [6]; “A (no living larvae)” in test [7]. Moreover, the mortality at 500 ppm in test [2], in test [5] and in test [8] was 100% each time.
Take `CCCSP(=O)(OC)N(CC#N)C(=O)OC(C)C` (centres unmarked) [Compound 3]: the Activity result is on record as “-” in test [1]; “A (Mortality 100%)” in test [3]; “A (Mortality not less than 90%)” in test [4]; “-” in test [6]; “A (no living larvae)” in test [7]. For the same compound, the mortality at 500 ppm in test [2], in test [5] and in test [8] was 100% throughout.
With `CCCSC(=O)N(CC#N)P(=O)(OCC)SC(C)CC` (centres unmarked) [Compound 12], the Activity result in test [1] was “-”; in test [3], “A (Mortality 100%)”; in test [4], “A (Mortality not less than 90%)”; in test [6] it was “-”. For the same compound, the mortality at 500 ppm in test [2], in test [5] and in test [8] was 100% throughout.
`CCOC(=O)N(CC#N)P(=O)(OC)SC(C)CC` (centres unmarked) [Compound 6]: the Activity entry is recorded as “-” in test [1]; “A (Mortality 100%)” in test [3]; “A (Mortality not less than 90%)” in test [4]; “-” in test [6]; “A (no living larvae)” in test [7]. The mortality at 500 ppm in test [2], in test [5] and in test [8] was 100% throughout.
With `CCOC(=O)N(CCC#N)P(=O)(OCC)SC(C)CC` (centres unmarked) [Compound 20], the Activity entry in test [1] is listed as “-”; in test [3], “A (Mortality 100%)”; in test [4] it was “A (Mortality not less than 90%)”; in test [6], “-”. In addition, the mortality at 500 ppm in test [2], in test [5] and in test [8] was 100% each time.
For `CCC(C)SP(=O)(OC)N(CC#N)C(=O)Oc1ccccc1` (centres unmarked) [Compound 15], in test [1], the Activity entry was “-”.
In the case of `CCOP(=O)(SC(C)CC)N(CC#N)C(=O)SC` (centres unmarked) [Compound 11], the Activity entry in test [1] is reported as “-”; in test [3], “A (Mortality 100%)”; in test [4] it was “A (Mortality not less than 90%)”; in test [6] it was “-”. Further, the mortality at 500 ppm in test [2], in test [5] and in test [8] was 100% each time.
For `CCCSP(=O)(OCC)N(CC#N)C(=O)OC` (centres unmarked) [Compound 7], the Activity entry in test [1] is reported as “-”; in test [3], “A (Mortality 100%)”; in test [4], “A (Mortality not less than 90%)”; in test [6], “-”; in test [7], “A (no living larvae)”. Besides, the mortality at 500 ppm in test [2], in test [5] and in test [8] was 100% each time.
With `CCCSC(=O)N(CCC#N)P(=O)(OCC)SC(C)CC` (centres unmarked) [Compound 19], the Activity result in test [1] is “-”; in test [3], “A (Mortality 100%)”; in test [4] it was “A (Mortality not less than 90%)”; in test [6], “-”. Also, the mortality at 500 ppm in test [2] and in test [5] was 100% throughout.
With `CCCSP(=O)(OCC)N(CC#N)C(=O)OCC` (centres unmarked) [Compound 8], the Activity result in test [1] is “-”; in test [3], “A (Mortality 100%)”; in test [4], “A (Mortality not less than 90%)”; in test [6], “-”; in test [7], “A (no living larvae)”. In addition, the mortality at 500 ppm in test [2], in test [5] and in test [8] was 100% throughout.
As for `CCOP(=O)(SC(C)CC)N(CC#N)C(=O)OC(C)C` (centres unmarked) [Compound 17], the Activity result in test [1] is “-”; in test [3], “A (Mortality 100%)”; in test [4], “A (Mortality not less than 90%)”; in test [6], “-”; in test [7] it was “A (no living larvae)”. In addition, the mortality at 500 ppm in test [2], in test [5] and in test [8] was 100% throughout.
Turning to `CCOP(=O)(SC(C)CC)N(CC#N)C(=O)c1ccccc1` (centres unmarked) [Compound 16], the Activity entry in test [1] is “-”; in test [3] it was “A (Mortality 100%)”; in test [4] it was “A (Mortality not less than 90%)”; in test [6], “-”; in test [7], “A (no living larvae)”. For the same compound, the mortality at 500 ppm in test [2], in test [5] and in test [8] was 100% each time.
Take `CCCSP(=O)(OC)N(CCC#N)C(=O)SC` (centres unmarked) [Compound 5]: the Activity result is given as “-” in test [1], “A (Mortality 100%)” in test [3] and “-” in test [6]. Further, the mortality at 500 ppm in test [2] and in test [8] was 100% throughout.
Turning to `CCOC(=O)N(CC#N)P(=O)(OCC)SC(C)CC` (centres unmarked) [Compound 10], the Activity entry in test [1] is “-”; in test [3], “A (Mortality 100%)”; in test [4], “A (Mortality not less than 90%)”; in test [6], “-”. For the same compound, the mortality at 500 ppm in test [2], in test [5] and in test [8] was 100% each time.
